The source of these data is publication PMC4586009, “Phytochemical composition, antiparasitic and α–glucosidase inhibition activities from Pelliciera rhizophorae” (Chemistry Central Journal, 2015).

One data set relates to L. donovani. Briefly: In vitro antiparasitic assay against L. donovani amastigotes (PicoGreen). It counts as cell-based. The note with it: Leishmania donovani, I = inactive at 10 µg/mL. Here is the method:
Promastigotes cultures of L. donovani are maintained in continuous log phase growth in Liver Infusion Tryptose (LIT) Medium, pH 7.2, supplemented with 10 % Fetal Bovine Serum (FBS) at 28 °C. For promastigote transformation into amastigote forms, 1 mL of promastigotes log phase culture is transferred into 5 mL of Medium 199 Modified (SIGMA-Cat M3769) pH 5.5, supplemented with 0.1 g/L L-glutamine, 2.2 g/L sodium bicarbonate, 2 g Glucose, 5 mL penicillin–streptomycin and 20 % FBS and maintained at 35 °C until its use for bioassays.
(§1) Dry samples were diluted in 100 % DMSO (dimethylsulfoxide) to obtain a concentration of 4 mg/mL. Samples are used immediately in the bioassay and stored at −20 °C in the dark until results are obtained. All assays are performed in sterile 96-well microtitre culture plates (Costar Cat 3595). In a primary screening samples are tested in duplicate wells at a final concentration of 10 μg/mL. […] The IC50 is analyzed with the Excel Add-On software LSW Data Analysis Tool. The concentration that inhibited the growth of the parasites to 50 % (IC50) was calculated through the inhibition curve of the obtained optical density values, and compared to the untreated controls.
(§2) L. donovani and P. falciparum A […] is used to determine the amount of parasites in culture. After 48 and 72 h incubation, respectively, 1 % PicoGreen® solution is added to all wells in the dark. After shaking, the plate is taken into a microplate reader employing 485/20 nm excitation and 528/20 nm emission filter sets.

Data set [1] concerns P. falciparum. Conditions: read-out: IC50 of positive control for P. falciparum; positive control range; cited from earlier work.
The test system of data set [2] is P. falciparum. Description: In vitro antiplasmodial assay, chloroquine-resistant strain Indochina W2 (PicoGreen). It counts as cell-based. Conditions: Plasmodium falciparum, I = inactive at 10 µg/mL, read-out: Antiparasitic activity IC50, P. falciparum. The method, then: The cultures are kept in synchrony by thermal cycling incubation and are maintained in continuous log phase growth in RPM-I1640 medium (SIGMA) supplemented with 2 % washed human O Rh positive (+) erythrocytes, 25 mM HEPES, […] NaHCO3, and 10 % Human Serum from an O Rh+ donor. All cultures and assays are conducted at 37 °C under an atmosphere of 5 % CO2 and 5 % O2, with a balance of N2 (90 %).
as §1, §2

For data set [3], the system named is T. cruzi. Briefly: In vitro T. cruzi growth inhibition, Tulahuen clone C4 expressing β-galactosidase, in Vero cells. The note with it: Trypanosoma cruzi, strain Tulahuen, I = inactive at 10 µg/mL, read-out: Antiparasitic activity IC50, T. cruzi. In kind it is cell-based. Here is the method:
T. cruzi (Tulahuen) C4 strain lactosidase (Lac Z) gene. The strain is maintained on VERO Cells (African Green Monkey cell line obtained from ATCC on 2006), grown in monolayers in RPM-I1640 medium, supplemented with 10 % heat inactivated FBS. All cultures and assays are conducted at 37 °C under an atmosphere of 5 % CO2/95 % air mixture.
as §1
T. cruzi In this assay, a colorimetric method is used to determine the inhibition of parasite growth as detected by reduction of β-galactosidase (β-Gal) as a reporter gene, expressed by the Tulahuen clone C4 of T. cruzi. Assays are performed on […], the intracellular form of the parasite infecting African green monkey kidney (VERO) cells, exposed during 120 h to different concentrations (50, 10 and 2 µg/mL) of the test substance. The resulting colour from the cleavage of chlorophenol red-β-D-galactoside (CPRG) by β-Gal expressed by the parasite, was measured using a Benchmark Bio-Rad microplate reader at 570 nm.

A short description of data set [4]: Cytotoxicity bioassay (MTT). In kind it is cell-based. Conditions: African green monkey, five days, I = inactive at 10 µg/mL. Here is the method:
Vero cells were seeded in 96-well plates in RPM-I1640 medium supplemented with 10 % FBS and 1 % penicillin/streptomycin. The cells were allowed to grow for 24 h before adding the test compounds, dissolved in DMSO, to final concentrations of 10, 4, 0.2 and 0.08 µg/mL. A sample with only a volume of DMSO similar to the added volume in the compounds samples was placed as a negative control in all plates. All samples were incubated for five days before staining and examining for reduction of 3-(4,5-dimethylthiazol-2-yl)-2,5-diphenyltetrazolium bromide (MTT) and analyzed 4 h later in a color plate reader at 570 nm.

Data set [5] addresses α-glucosidase from baker's yeast. Description: α-Glucosidase inhibitory assay (PNP-G substrate) and kinetic analysis. It counts as biochemical, S. cerevisiae. The method, then: Lineweaver–Burk plots were constructed using different concentrations of substrate and triterpenes 1–5.
The α-glucosidase inhibitory assay was performed according to Chan and collaborators (2010), with modifications. α-glucosidase from baker’s yeast purchased from Sigma Chemical Co. The inhibition was measured spectrophotometrically at pH 7.0 and 37 °C employing 2 mM p-nitrophenyl α-D-glucopyranoside (PNP-G) as a substrate and 32 mU/mL of enzyme, in 100 mM potassium phosphate buffer (enzyme stock). […] The absorbance (A) of 4-nitrophenol released by the hydrolysis of PNP-G was measured at 400 nm by Synergy HT Bio Tek microplate spectrophotometer. […] After incubating, 150µL of substrate was added and further incubated for 20 min at 37 °C. All assays are performed in 96-well microplates (Greiner bio-one 655101) in duplicate. The activity of samples was calculated as a percentage in comparison to a control (DMSO or MeOH instead of sample solution) according with the following equation:
%Inhibition=(ΔAcontrol-ΔAsample)/ΔAcontrol×100%
The concentration required to inhibit activity of the enzyme by 50 % (IC50) was calculated by regression analysis.

The test system of data set [6] is T. cruzi. The note with it: read-out: IC50 of positive control for T. cruzi; positive control range; cited from earlier work.
[7] abbreviates: pH 7.0, 37 °C, 2 mM PNP-G, read-out: α-glucosidase inhibition IC50.
The mark [8] stands for this setting: α-glucosidase IC50 in Table 2, read-out: IC50.
Setting [9] is: read-out: IC50, Vero cells (cytotoxicity).

Each structure is given as a SMILES string. Read-outs that look alike come from different tables or passages of the source.

Usually IC50 stands for the concentration that gives 50% inhibition. In general, melting point refers to the temperature of the solid-liquid transition.

`C[C@@H]1[C@H](O)[C@@H](C)/C=C/C=C/C=C/C=C/C=C/C=C/C=C/[C@H](O[C@@H]2O[C@H](C)[C@@H](O)[C@H](N)[C@@H]2O)C[C@@H]2O[C@](O)(C[C@@H](O)C[C@@H](O)[C@H](O)CC[C@@H](O)C[C@@H](O)CC(=O)O[C@H]1C)C[C@H](O)[C@H]2C(=O)O` [Anfotericine B, Amphotericin B, reference compound] had a 50% inhibitory concentration (IC50) in the data set on L. donovani of 1 ± 0.12 µM.
In the case of `CCN(CC)CCCC(C)Nc1ccnc2cc(Cl)ccc12` (centres unmarked) [Chloroquine], the IC50 with P. falciparum [1] was 0.08 to 0.1 µM.
Regarding `C[C@H]1[C@H](C)CC[C@]2(C)CC[C@]3(C)C(=CC[C@@H]4[C@@]5(C)CC[C@H](O)C(C)(C)[C@@H]5CC[C@]43C)[C@H]12` [Compound 1, α-amyrine], the concentration for half-maximal inhibition (IC50) in the data set with L. donovani is more than 10 µg/mL; in the data set on P. falciparum [2], more than 10 µg/mL; in the data set on T. cruzi [3], 19 ± 0.6 µM; in data set [5] (setting [7]), 1.45 µM; in data set [5] (setting [8]), 1.45 µM. In data set [4] (Vero cells), this molecule came in with a half-maximal inhibitory concentration (IC50) at 5 days of more than 10 µg/mL.
As to `CC1(C)CC[C@]2(C)CC[C@]3(C)C(=CC[C@@H]4[C@@]5(C)CC[C@H](O)C(C)(C)[C@@H]5CC[C@]43C)[C@@H]2C1` [Compound 2, β-amyrine], the half-maximal inhibitory concentration (IC50) in the data set on L. donovani was more than 10 µg/mL; with P. falciparum [2], more than 10 µg/mL; in the data set with T. cruzi [3], more than 10 µg/mL; in data set [5] (setting [7]), 0.02 µM; in data set [5] (setting [8]), 0.02 µM. Moreover, the IC50 at 5 days in data set [4] (setting [9]) was more than 10 µg/mL.
Turning to `C[C@H]1[C@H](C)CC[C@]2(C(=O)O)CC[C@]3(C)C(=CC[C@@H]4[C@@]5(C)CC[C@H](O)C(C)(C)[C@@H]5CC[C@]43C)[C@H]12` [Compound 3, ursolic acid], the IC50 in the data set on L. donovani was 2.4 ± 0.1 µM; with P. falciparum [2], 21.9 ± 0.6 µM; in the data set on T. cruzi [3], more than 10 µg/mL; in data set [5] (setting [7]), 1.08 µM; in data set [5] (setting [8]), 1.08 µM. In data set [4] (Vero cells), this molecule had a 50% inhibitory concentration (IC50) at 5 days of 64.8 ± 0.3 µM.
Consider `CC1(C)CC[C@]2(C(=O)O)CC[C@]3(C)C(=CC[C@@H]4[C@@]5(C)CC[C@H](O)C(C)(C)[C@@H]5CC[C@]43C)[C@@H]2C1` [Compound 4, oleanolic acid], for which the IC50 in the data set on L. donovani was 5.3 ± 0.2 µM; with P. falciparum [2], more than 10 µg/mL; in the data set with T. cruzi [3] it was more than 10 µg/mL; in data set [5] (setting [7]), 0.98 µM; in data set [5] (setting [8]), 0.98 µM. This molecule also displayed an IC50 at 5 days in data set [4] (Vero cells) of 140.8 ± 0.5 µM.
For `C=C(C)[C@@H]1CC[C@]2(C(=O)O)CC[C@]3(C)[C@H](CC[C@@H]4[C@@]5(C)CC[C@H](O)C(C)(C)[C@@H]5CC[C@]43C)[C@@H]12` [Compound 5, betulinic acid], the IC50 in the data set with L. donovani was more than 10 µg/mL; with P. falciparum [2], 18 ± 0.4 µM; with T. cruzi [3], more than 10 µg/mL; in data set [5] (setting [7]), 2.37 µM; in data set [5] (setting [8]), 2.37 µM. Further, the half-maximal inhibitory concentration (IC50) at 5 days in data set [4] (setting [9]) worked out at 131.1 ± 0.3 µM.
As to `[O-][S@+]1C[C@H](O)CS1` [Compound 6, brugierol], the IC50 in the data set on L. donovani, in the data set on P. falciparum [2] and in the data set with T. cruzi [3] was more than 10 µg/mL throughout. In data set [4] (Vero cells), this molecule returned an IC50 at 5 days of more than 10 µg/mL. Also, the “α-glucosidase inhibition IC50” value in data set [5] (pH 7.0, 37 °C, 2 mM PNP-G) was “inactive”.
`[O-][S@@+]1C[C@H](O)CS1` [Compound 7, iso-brugierol]: the melting point was in the range of 82 to 83 °C. The molecule further displayed a concentration for half-maximal inhibition (IC50) with L. donovani of more than 10 µg/mL. The IC50 in the data set on P. falciparum [2] was more than 10 µg/mL. In addition, the IC50 with T. cruzi [3] was more than 10 µg/mL. In data set [4] (Vero cells), this molecule came in with an IC50 at 5 days of more than 10 µg/mL. Also, the “α-glucosidase inhibition IC50” value in data set [5] (pH 7.0, 37 °C, 2 mM PNP-G) is “inactive”.
On to `O=c1c(O)c(-c2ccc(O)cc2)oc2cc(O)cc(O)c12` [Compound 8, kaempferol], for which the concentration for half-maximal inhibition (IC50) with L. donovani is 22.9 ± 0.2 µM; in the data set on P. falciparum [2], more than 10 µg/mL; with T. cruzi [3], more than 10 µg/mL; in data set [5] (setting [7]), 262 µM. Further, inhibition in data set [4] (Vero cells) was half-maximal at 154.9 ± 0.6 µM (IC50 at 5 days).
With `O=c1c(O)c(-c2ccc(O)c(O)c2)oc2cc(O)cc(O)c12` [Compound 9, quercetin], the half-inhibitory concentration (IC50) was determined as 12.6 ± 0.2 µM with L. donovani, 9.7 ± 0.3 µM with P. falciparum [2], 13 ± 0.4 µM with T. cruzi [3] and 29.8 µM in data set [5] (setting [7]). Besides, the IC50 at 5 days in data set [4] (Vero cells) is more than 10 µg/mL.
Take `CC1CS(=O)(=O)CCN1/N=C/c1ccc([N+](=O)[O-])o1` (centres unmarked) [Nifurtimox, reference compound]: the IC50 was 1.6 ± 0.11 µM in the data set on T. cruzi [3] and 0.15 to 13.4 µM in the data set with T. cruzi [6].
As for `C[C@H]1O[C@H](O[C@H]2[C@H](O)[C@@H](O)[C@@H](O[C@H]3[C@H](O)[C@@H](O)C(O)O[C@@H]3CO)O[C@@H]2CO)[C@H](O)[C@@H](O)[C@@H]1N[C@H]1C=C(CO)[C@@H](O)[C@H](O)[C@H]1O` (some centres unmarked) [acarbose, reference compound], the “type of α-glucosidase inhibition (Lineweaver–Burk plots)” value in data set [5] (different concentrations of substrate and inhibitor) is “competitive inhibitor”.
